Measured values taken from ChEMBL document CHEMBL3351441, “The effect of pK(a) on pyrimidine/pyridine-derived histamine H4 ligands” (Bioorg Med Chem Lett, 2014).

Assays:
Histamine H4 receptor = Histamine H4 receptor (Homo sapiens, UniProt Q9H3N8); test: Displacement of [3H]histamine from human recombinant histamine H4 receptor
[1] = Dissociation constant, pKa of the compound by Analiza PRO analyzer based method; assay type: physicochemical
[2] = Dissociation constant, pKa of the compound by potentiometric titration; assay type: physicochemical

Compound | Ki (Histamine H4 receptor) [µM] | pKa [1] | pKa [2]
Nc1nc(C2CCCC2)cc(N2CCNCC2)n1 |  | 7.9 | 
CN[C@@H]1CCN(c2cc(C(F)(F)F)nc(N)n2)C1 | > 10 | 3.1 | 3.1
CN[C@@H]1CCN(c2cc(CCl)nc(N)n2)C1 | 0.092 | 6 | 
CN[C@@H]1CCN(c2cc(CC(F)(F)F)nc(N)n2)C1 | 0.011 | 5.4 | 
CN[C@@H]1CCN(c2cc(CCC(F)(F)F)nc(N)n2)C1 |  | 7.8 | 
Nc1nc(C2CCCC2)cc(C2CCNCC2)n1 | 1.55 | 4.5 | 
Nc1nc(NC2CCCC2)cc(C2CCNCC2)n1 | > 1 | 6.1 | 
Nc1cc(C2CCNCC2)cc(NC2CCCC2)n1 | 0.05 | 6.1 | 
Nc1cc(N2CCNCC2)cc(NC2CCCC2)n1 | 0.002 | 6.5 | 
Nc1cc(C2CCNCC2)cc(OC2CCCC2)n1 | > 10 | 4.7 | 

Next, values leading:

Ki (Histamine H4 receptor) [µM] | pKa [1] | pKa [2] | Compound
0.0031 | 6.5 |  | CN[C@@H]1CCN(c2cc(N)nc(NC(C)C)c2)C1
 | 6.3 |  | CN[C@@H]1CCN(c2cc(N)nc(NC(C)C)n2)C1
 | 6.3 | 7.5 | CCc1cc(N2CC[C@@H](NC)C2)nc(N)n1
0.456 |  | 5.9 | CCc1cc(N2CC[C@@H](NC)C2)ncn1
0.126 | 5.5 |  | CN[C@@H]1CCN(c2cc(CF)nc(N)n2)C1
> 10 | 4.4 |  | CN[C@@H]1CCN(c2cc(C(F)F)nc(N)n2)C1
0.32 | 6.3 |  | CN[C@@H]1CCN(c2cc(N)nc(C(C)C)n2)C1
0.46 | 6.5 |  | CN[C@@H]1CCN(c2ccnc(C(C)C)n2)C1
 | 6.4 |  | CN[C@@H]1CCN(c2ccnc(NC(C)C)n2)C1
 | 6.6 |  | CN[C@@H]1CCN(c2ccnc(NC(C)C)c2)C1
